Results taken from article PMC2824924 (Bioorganic & medicinal chemistry, 2009).

Key:
Vero cells = assay: Cytotoxicity against Vero cells; assay type: cell-based, African monkey
[1] = test system: National Cancer Institute's 60 cultured human tumor cell lines; assay: NCI 60 human tumor cell line screen; conditions: mean graph midpoint; concentration of total growth inhibition
Cryptococcus neoformans = assay: Antimicrobial assay, antifungal; conditions: compared to control drug amphotericin B
[2] = test system: Plasmodium falciparum W2 clone (chloroquine-resistant); assay: In vitro antimalarial assay; assay type: cell-based; conditions: W2, 72 h, read-out: Plasmodium falciparum W2 clone IC50
[3] = test system: Plasmodium falciparum D6 clone (chloroquine-sensitive); assay: In vitro antimalarial assay; assay type: cell-based; conditions: D6, 72 h, read-out: Plasmodium falciparum D6 clone IC50

Row | Structure (SMILES) | Cytotoxicity Vero TC50 (Vero cells; African monkey, 48 h) | also measured
1 | C[C@@H]1CC[C@H]2[C@@H](C)C(=O)O[C@@H]3O[C@@]4(C)CC[C@@H]1[C@]32OO4 [Compound 1, Artemisinin, reference compound] | > 1,686 nM | –
2 | C[C@H]1[C@@H](O)O[C@@H]2O[C@@]3(C)CC[C@H]4[C@H](C)CC[C@@H]1[C@@]24OO3 [Compound 2, Dihydroartemisinin, reference compound] | 1,407 nM | –
3 | CC1=CO[C@@H]2O[C@]3(C)CC[C@H]4[C@H](C)CC[C@@H]1[C@@]24OO3 [Compound 3, Anhydrodihydroartemisinin, reference compound] | > 1,787 nM | –
4 | C[C@H]1[C@@H](OCC(=O)CO[C@H]2O[C@@H]3O[C@@]4(C)CC[C@H]5[C@H](C)CC[C@@H]([C@H]2C)[C@@]35OO4)O[C@@H]2O[C@@]3(C)CC[C@H]4[C@H](C)CC[C@@H]1[C@@]24OO3 [Compound 4] | 257 nM | –
5 | C[C@H]1[C@@H](OCC(O)CO[C@H]2O[C@@H]3O[C@@]4(C)CC[C@H]5[C@H](C)CC[C@@H]([C@H]2C)[C@@]35OO4)O[C@@H]2O[C@@]3(C)CC[C@H]4[C@H](C)CC[C@@H]1[C@@]24OO3 (stereo partly shown) [Compound 5] | 384 nM | –
6 | C[C@H]1[C@@H](OCc2cc(O)cc(O[C@H]3O[C@@H]4O[C@@]5(C)CC[C@H]6[C@H](C)CC[C@@H]([C@H]3C)[C@@]46OO5)c2)O[C@@H]2O[C@@]3(C)CC[C@H]4[C@H](C)CC[C@@H]1[C@@]24OO3 [Compound 6] | > 7,075 nM | MG_MID TGI [1]: 2820 nM
7 | C[C@H]1[C@@H](Oc2cccc(N[C@@H]3[C@H](C)O[C@@H]4O[C@@]5(C)CC[C@H]6[C@H](C)CC[C@@H]3[C@@]46OO5)c2)O[C@@H]2O[C@@]3(C)CC[C@H]4[C@H](C)CC[C@@H]1[C@@]24OO3 [Compound 7] | > 7,417 nM | In vitro antifungal activity (in words) (Cryptococcus neoformans): enhanced activity compared to the control drug, amphotericin B
8 | C[C@H]1[C@@H](OC/C=C\CO[C@H]2O[C@@H]3O[C@@]4(C)CC[C@H]5[C@H](C)CC[C@@H]([C@H]2C)[C@@]35OO4)O[C@@H]2O[C@@]3(C)CC[C@H]4[C@H](C)CC[C@@H]1[C@@]24OO3 [Compound 8] | 709 nM | –
9 | C=C[C@@H](CO[C@H]1O[C@@H]2O[C@@]3(C)CC[C@H]4[C@H](C)CC[C@@H]([C@H]1C)[C@@]24OO3)O[C@H]1O[C@@H]2O[C@@]3(C)CC[C@H]4[C@H](C)CC[C@@H]([C@H]1C)[C@@]24OO3 [Compound 9] | 773 nM | –
10 | C[C@H]1[C@@H](OCC[C@H](O)CO[C@H]2O[C@@H]3O[C@@]4(C)CC[C@H]5[C@H](C)CC[C@@H]([C@H]2C)[C@@]35OO4)O[C@@H]2O[C@@]3(C)CC[C@H]4[C@H](C)CC[C@@H]1[C@@]24OO3 [Compound 10] | > 7,452 nM | –
11 | C[C@H]1[C@@H](OC[C@@H](O)[C@@H](O)CO[C@H]2O[C@@H]3O[C@@]4(C)CC[C@H]5[C@H](C)CC[C@@H]([C@H]2C)[C@@]35OO4)O[C@@H]2O[C@@]3(C)CC[C@H]4[C@H](C)CC[C@@H]1[C@@]24OO3 [Compound 11] | > 7,270 nM | –
12 | C[C@H]1[C@@H](O[C@@H](CO[C@H]2O[C@@H]3O[C@@]4(C)CC[C@H]5[C@H](C)CC[C@@H]([C@H]2C)[C@@]35OO4)[C@H](O)CO)O[C@@H]2O[C@@]3(C)CC[C@H]4[C@H](C)CC[C@@H]1[C@@]24OO3 [Compound 12] | 825 nM | In vitro antifungal activity (in words) (Cryptococcus neoformans): enhanced activity compared to the control drug, amphotericin B
13 | C[C@H]1[C@@H](OC[C@@H]2O[C@@H]2CO[C@H]2O[C@@H]3O[C@@]4(C)CC[C@H]5[C@H](C)CC[C@@H]([C@H]2C)[C@@]35OO4)O[C@@H]2O[C@@]3(C)CC[C@H]4[C@H](C)CC[C@@H]1[C@@]24OO3 [Compound 13] | > 7,475 nM | –
14 | C[C@H]1[C@@H](OCC(CO[C@H]2O[C@@H]3O[C@@]4(C)CC[C@H]5[C@H](C)CC[C@@H]([C@H]2C)[C@@]35OO4)OS(C)(=O)=O)O[C@@H]2O[C@@]3(C)CC[C@H]4[C@H](C)CC[C@@H]1[C@@]24OO3 (stereo partly shown) [Compound 14] | 6,403 nM | –
15 | C[C@H]1[C@@H](OCC(=O)CO)O[C@@H]2O[C@@]3(C)CC[C@H]4[C@H](C)CC[C@@H]1[C@@]24OO3 [Compound 15] | > 13,355 nM | –
16 | C[C@H]1[C@@H](OCc2cc(O)cc(O)c2)O[C@@H]2O[C@@]3(C)CC[C@H]4[C@H](C)CC[C@@H]1[C@@]24OO3 [Compound 16] | > 11,711 nM | –
17 | C[C@H]1[C@@H](OC/C=C\CO)O[C@@H]2O[C@@]3(C)CC[C@H]4[C@H](C)CC[C@@H]1[C@@]24OO3 [Compound 17] | > 13,430 nM | In vitro antifungal activity (in words) (Cryptococcus neoformans): enhanced activity compared to the control drug, amphotericin B
18 | C[C@H]1[C@@H](OCC[C@@H](CO[C@H]2O[C@@H]3O[C@@]4(C)CC[C@H]5[C@H](C)CC[C@@H]([C@H]2C)[C@@]35OO4)O[C@H]2O[C@@H]3O[C@@]4(C)CC[C@H]5[C@H](C)CC[C@@H]([C@H]2C)[C@@]35OO4)O[C@@H]2O[C@@]3(C)CC[C@H]4[C@H](C)CC[C@@H]1[C@@]24OO3 [Compound 18] | 5,259 nM | –
19 | CCN(CC)CCCC(C)Nc1ccnc2cc(Cl)ccc12 (stereo not shown) [chloroquine] | – | IC50 [2]: 378 nM; IC50 [3]: 41.6 nM; Cytotoxicity Vero TC50 (Vero cells; Table 2, concentration toxic to 50% of the cells): > 14,881 nM
